Test [1] is described as follows: Residual propylene hydroformylation activity after heat treatment, Ligand F catalyst (Table 1). As for the experimental part: A catalyst solution (100 milliliters) was generated in a six ounce Fisher Porter Bottle by dissolving 0.063 grams of rhodium dicarbonyl 2,4-pentanedionate, 0.8 grams of Ligand F, 20 grams of n-butyraldehyde, and 78.7 grams of tetraethylene glycol dimethyl ether, subsequently alternately evacuating and flushing with nitrogen; and finally adding 60 psi of CO:H2, and placing the bottles in a 100° C. oil bath for 1 hour.
(§1) After closing the reactor, the system was again purged with nitrogen and place in an oil bath heated to 100° C. The hydroformylation reaction in each experiment was conducted at a total gas pressure of 160 psig. The target partial pressure of hydrogen, carbon monoxide, and propylene being about 45 psia, 45 psia, and 5 psia respectively, with the remainder being nitrogen. The flows of the feed gases (carbon monoxide, hydrogen, propylene, and nitrogen) were controlled individually with mass flow meters. The feed gases were dispersed into the precursor solution via stainless steel 7-micron filters used as spargers. The unreacted portion of the feed gases stripped out the product aldehydes. Each experiment was operated for 24 hours under the above conditions. The activity is defined as the observed reaction rate divided by the predicted reaction rate. The reaction rates are expressed in terms of gram moles per liter per hour.
The same procedure as in Example 2 was followed with the exception that a slow stream of 1,2-propadiene was purged through the initially generated catalyst solution for 5 minutes. Excess was then removed by alternately evacuating and flushing with nitrogen. The resulting solution was heated at 125° C. as in Example 2, and 20 milliliters of the resulting solution was transferred to a glass reactor as in Example 2 and the activity determined.
(§2) The same procedure as in Example 3 was followed except 2 milliliters of 1,3-butadiene was added to the generated catalyst and stirred for 5 minutes. Excess 1,3-butadiene was then removed by alternate evacuation and flushing with nitrogen. The resulting solution was heated at 125° C. as in Example 2, and 20 milliliters of the resulting solution was transferred to a glass reactor as in Example 2 and the activity determined.
The same procedure as in Example 4 was followed with the exception that 50 milliliters of a catalyst solution generated as in Example 2 was treated with 0.5 milliliters of 2-methyl-1,3-butadiene (isoprene) in place of 1,3-butadiene.
A catalyst solution (20 milliliters) was generated in a Fisher Porter Bottle as in Example 2 under 60 psi CO:H2 for 1 hour, then cooled to room temperature and treated with 0.5 milliliters of 1,3-butadiene. The solution was removed from the Fisher Bottle by hypodermic syringe and transferred to a 100 milliliter stirred stainless vessel and maintained at 140° C. under 15 psi nitrogen for 14 hours. The resulting solution was then transferred to the glass reactors as in Example 2, and the residual catalyst activity measured. […]
The same procedure as in Example 8 was followed except allene was employed in place of 1,3-butadiene, and the resulting solution heated at 140° C. for 48 hours without removing excess allene.
A 20 milliliter sample of freshly generated catalyst solution (prepared as in Example 2) was charged to the glass reactors and the activity measured.
The same procedure as in Example 8 was followed except 0.4 grams of 1,3-cyclohexadiene was employed in place of 1,3-butadiene.

The nature of test [2]: Residual propylene hydroformylation activity after heat treatment, Ligand D catalyst (Table 1). The following applies: 125° C./50 hours, excess diene checked. As for the experimental part: as §1, with “About 20 milliliters of the solution was charged to a glass reactor via a syringe after purging the reactor with nitrogen (see Examples 14-20 below). After” for “After”
as §2
The same procedure as in Example 4 was followed except Ligand D (as identified herein) was employed in place of Ligand F. The results are given in Table 1.
The same procedure as in Example 10 was followed except the fresh catalyst solution contained Ligand D in place of Ligand F. The results are given in Table 1.

Where [3] appears, read: 125° C./24 hours, no excess diene.
[4] abbreviates: 140° C./14 hours, excess diene present.
The mark [5] stands for this setting: 140° C./48 hours, excess diene present.

The values that follow come from patent US6090987A, “Metal-ligand complex catalyzed processes” (Union Carbide Chemicals & Plastics Technology Corporation, priority 1998, dated 2000).

`C=CC=C` [Butadiene, 1,3-butadiene]: the “% Activity” value amounted to 102% in test [1] (setting [3]), 25.2% in test [1] (setting [4]), 96.3% in test [1] (setting [5]) and 116% in test [2]. Moreover, the “Final Rate” value is given as 2.23 gram moles per liter per hour in test [1] (setting [3]), 0.55 gram moles per liter per hour in test [1] (setting [4]), 2.10 gram moles per liter per hour in test [1] (setting [5]) and 1.23 gram moles per liter per hour in test [2].
